The numbers were not newly measured in US20070009558A1, “Sugar-free storage-stable antihistaminic syrups” (priority 2004, published 2007), which cites them from elsewhere.

Like-named read-outs stand apart in the source and are kept apart here.

For the compound `Clc1ccc2c(c1)CCc1cccnc1C2=C1CCNCC1` [Desloratadine, 8-chloro-6,11-dihydro-11-(4-piperdinylidene)-5H-benzo[5,6]cyclohepta[1 ,2-b]pyridine], the solubility entry reads like this: (in ethanol) “very soluble”; (in propylene glycol) “very soluble”; (in water) “slightly soluble”.
